Results taken from ChEMBL document CHEMBL5096178, “Synthesis and Biological Evaluation of Natural-Product-Inspired, Aminoalkyl-Substituted 1-Benzopyrans as Novel Antiplasmodial Agents” (J Med Chem, 2021).
In brackets after ≈: the same amount, converted by molar mass.

Key:
Leishmania donovani [1] = assay: Antiprotozoal activity against Leishmania donovani MHOM/ET/67/L82 axenic amastigote assessed as parasite growth inhibition incubated for resazurin dye based fluorometry; type: functional, organism-based
[2] = (§1) Drug metabolism in NMRI mouse infected with GFP-transfected Plasmodium berghei ANKA assessed as (2R,3R,4S,5S,6R)-2-(2,2-dimethyl-6-((3-phenylpropylamino)methyl)chroman-7-ylperoxy)-6-(hydroxymethyl)tetrahydro-2H-pyran-3,4,5-triol metabolite formation administered intraperitoneally for 4 consecutive days measured after 1 hr by LC-MS analysis; type: ADME; conditions: in vivo, ip, 97 h
Plasmodium falciparum [3] = assay: Inhibition of Plasmodium falciparum DHODH assessed as residual activity using DCIP as substrate at 10 uM relative to control
Plasmodium falciparum [4] = assay: Inhibition of Plasmodium falciparum DHODH using DCIP as substrate at 50 uM relative to control
Plasmodium falciparum [5] = assay: Inhibition of Plasmodium falciparum DHODH using DCIP as substrate at 10 uM relative to control
[6] = Selectivity index, ratio of IC50 for rat L6 cells to IC50 for erythrocytic stage Plasmodium falciparum NF54; type: toxicity; conditions: read-out: Ratio IC50
[7] = Drug metabolism in mouse liver microsomes assessed as glucuronic acid conjugated metabolite formation incubated for 90 mins in presence of NADPH/UDPGA by LC-MS analysis; type: ADME, Microsome; conditions: 1.5 h
Plasmodium berghei [8] = assay: Antiplasmodial activity against GFP-transfected Plasmodium berghei ANKA infected in NMRI mouse assessed as parasitemia reduction at 60 mg/kg, po administered for 4 consecutive days measured after 24 hrs by FACS analysis relative to control; type: functional; parameters: scale not given: the % may be the effect or the level left
[9] = Drug metabolism in mouse liver microsomes assessed as 2,2-dimethyl-6-((3-phenylpropylamino)methyl)chroman-7-ol metabolite formation incubated for 90 mins in presence of NADPH/UDPGA by LC-MS analysis; type: ADME, Microsome; conditions: 1.5 h
[10] = Drug metabolism in NMRI mouse infected with GFP-transfected Plasmodium berghei ANKA assessed as glucuronic acid conjugated metabolite formation administered orally for 4 consecutive days measured after 1 hr by LC-MS analysis; type: ADME; conditions: in vivo, po, 97 h
Plasmodium falciparum [11] = assay: Inhibition of Plasmodium falciparum DHODH assessed as residual activity using DCIP as substrate at 50 uM relative to control
Plasmodium falciparum [12] = assay: Antiprotozoal activity against erythrocytic stage Plasmodium falciparum NF54 assessed as parasite growth inhibition incubated for 48 hrs by [3H]hypoxanthine incorporation assay; type: functional, organism-based
[13] = Drug metabolism in NMRI mouse infected with GFP-transfected Plasmodium berghei ANKA assessed as 2,2-dimethyl-6-((3-phenylpropylamino)methyl)chroman-7-ol metabolite formation administered intraperitoneally for 4 consecutive days measured after 1 hr by LC-MS analysis; type: ADME; conditions: in vivo, ip, 97 h
[14] = Selectivity index, ratio of IC50 for rat L6 cells to IC50 for Trypanosoma cruzi Tulahuen C4 intracellular amastigote infected in rat L6 cells; type: toxicity, cell-based; conditions: read-out: Ratio IC50
Plasmodium berghei [15] = assay: Antiplasmodial activity against GFP-transfected Plasmodium berghei ANKA infected in NMRI mouse assessed as parasitemia reduction at 30 mg/kg, ip administered for 4 consecutive days measured after 24 hrs by FACS analysis relative to control; type: functional; parameters: scale not given: the % may be the effect or the level left
[16] = Cytotoxicity against rat L6 cells assessed as cell growth inhibition incubated for 70 hrs by Alamar Blue staining based […]; type: toxicity
[17] = Drug metabolism in NMRI mouse infected with GFP-transfected Plasmodium berghei ANKA assessed as 2,2-dimethyl-6-((3-phenylpropylamino)methyl)chroman-7-ol metabolite formation administered orally for 4 consecutive days measured after 1 hr by LC-MS analysis; type: ADME; conditions: in vivo, po, 97 h
[18] = Selectivity index, ratio of IC50 for rat L6 cells to IC50 for Trypanosoma brucei rhodesiense STIB 900 bloodstream trypomastigote; type: toxicity; conditions: read-out: Ratio IC50
[19] = Drug metabolism in NMRI mouse infected with GFP-transfected Plasmodium berghei ANKA assessed as glucuronic acid conjugated metabolite formation administered intraperitoneally for 4 consecutive days measured after 1 hr by LC-MS analysis; type: ADME; conditions: in vivo, ip, 97 h
[20] = Drug concentration in plasma of NMRI mouse infected with GFP-transfected Plasmodium berghei ANKA administered orally for 4 consecutive days measured after 1 hr by LC-MS analysis; type: ADME; conditions: po, 97 h
[21] = Selectivity index, ratio of IC50 for rat L6 cells to IC50 for Leishmania donovani MHOM/ET/67/L82 axenic amastigote; type: toxicity; conditions: read-out: Ratio IC50
[22] = Drug concentration in plasma of NMRI mouse infected with GFP-transfected Plasmodium berghei ANKA administered intraperitoneally for 4 consecutive days measured after 1 hr by LC-MS analysis; type: ADME; conditions: ip, 97 h
[23] = system: Trypanosoma brucei rhodesiense; assay: Antiprotozoal activity against Trypanosoma brucei rhodesiense STIB 900 bloodstream trypomastigote assessed as parasite growth inhibition incubated for 70 hrs by resazurin dye based assay; type: functional, organism-based; conditions: STIB 900, 70 h
[24] = Drug metabolism in mouse liver microsomes assessed as (2R,3R,4S,5S,6R)-2-(2,2-dimethyl-6-((3-phenylpropylamino)methyl)chroman-7-ylperoxy)-6-(hydroxymethyl)tetrahydro-2H-pyran-3,4,5-triol metabolite formation incubated for 90 mins in presence of NADPH/UDPGA by LC-MS analysis; type: ADME, Microsome; conditions: 1.5 h
Trypanosoma cruzi = assay: Antiprotozoal activity against Trypanosoma cruzi Tulahuen C4 intracellular amastigote infected in rat L6 cells assessed as parasite growth inhibition incubated for 96 hrs in presence of CPRG/Nonidet by photometry; type: functional, organism-based; conditions: Tulahuen C4, L6, 96 h
[25] = Displacement of [3H]-(+)-pentazocine from Sigma1 receptor derived from pig brain assessed as inhibition constant measured after 120 mins by scintillation counter analysis; type: tissue-based, Sus scrofa
[26] = as §1, with “orally” for “intraperitoneally”; type: ADME; conditions: in vivo, po, 97 h
Plasmodium falciparum [27] = assay: Antimalarial activity against chloroquine-sensitive Plasmodium falciparum D6 assessed as parasite growth inhibition by [3H]hypoxanthine growth inhibition assay; type: functional, organism-based
Plasmodium falciparum [28] = assay: Antimalarial activity against drug-sensitive Plasmodium falciparum 3D7 assessed as parasite growth inhibition incubated for 48 hrs by [3H]hypoxanthine incorporation assay; type: functional, organism-based
Plasmodium falciparum [29] = assay: Antiprotozoal activity against Chloroquine-resistant Plasmodium falciparum K1 assessed as parasite growth inhibition; type: functional, organism-based
Leishmania donovani [30] = assay: Antiprotozoal activity against Leishmania donovani MHOM-ET-67/L82 axenic amastigotes assessed as parasite growth inhibition incubated for 70 hrs by resazurin dye based inverted microscopy; conditions: MHOM-ET-67/L82, 70 h
Plasmodium falciparum [31] = assay: Potency index, ratio of Chloroquine IC50 to test compound IC50 for Chloroquine-resistant Plasmodium falciparum K1 assessed as parasite growth inhibition; type: functional
[32] = Displacement of [14C]lactate from Plasmodium falciparum FNT expressed in Saccharomyces cerevisiae incubated for 24 hrs by liquid scintillation counter method
Plasmodium falciparum [33] = assay: Antiplasmodial activity against Plasmodium falciparum 3D7 assessed as parasite growth inhibition incubated for 24 hrs by FACS analysis; type: functional, organism-based

For `CC1(C)CCc2cc(CNCCCc3ccccc3)c(O)cc2O1`, the IC50 (Leishmania donovani [1]) was 134000 nM, the Drug metabolism [2] was “Metabolite_Detected” and the Activity (Plasmodium falciparum [3]) was 106%. The inhibition (Plasmodium falciparum [4]) was 1%, the inhibition (Plasmodium falciparum [5]) was 3% and the selectivity ratio [6] was 171. The Drug metabolism [7] was “Metabolite_Detected”, the Activity (Plasmodium berghei [8]) was 74% and the Drug metabolism [9] was “Metabolite_Detected”. For the same molecule, the Drug metabolism [10] was “Metabolite_Detected”, the Activity (Plasmodium falciparum [11]) was 90% and the IC50 (Plasmodium falciparum [12]) was 38 nM. For the same molecule, the Drug metabolism [13] was “Metabolite_Detected”, the selectivity ratio [14] was 0.4 and the Activity (Plasmodium berghei [15]) was 66%. The IC50 at 70 h [16] was 6500 nM, the Drug metabolism [17] was “Metabolite_Detected” and the selectivity ratio [18] was 14. For the same molecule, the Drug metabolism [19] was “Metabolite_Detected”, the Drug uptake [20] was “Active” and the selectivity ratio [21] was 0.05. The Drug uptake [22] was “Active”, the IC50 [23] was 410 nM and the Drug metabolism [24] was “Metabolite_Detected”. For the same molecule, the IC50 (Trypanosoma cruzi) was 15000 nM, the Ki [25] was 74 nM and the Drug metabolism [26] was “Metabolite_Detected”.
For `CCCCNCc1cc(C(C)(C)C)cc(-c2cnc(C(F)(F)F)c(F)c2)c1O`, the IC50 (Plasmodium falciparum [27]) was 9 nM.
`CC(C)(C)c1cc(O)c(CN)c(C(C)(C)C)c1` gave an IC50 (Plasmodium falciparum [28]) of 30 µg/mL (≈ 127 µM).
`C[C@@H](NCc1ccccc1)c1cc2c(cc1O)OC(C)(C)C=C2` gave an Activity (Plasmodium falciparum [3]) of 110%, an inhibition (Plasmodium falciparum [4]) of 1% and an inhibition (Plasmodium falciparum [5]) of 3%. The IC50 (Plasmodium falciparum [29]) was 20 nM and the Activity (Plasmodium falciparum [11]) was 91%.
For `CCCCCCCCCCCCCCCCOP(=O)([O-])OCC[N+](C)(C)C` [MILTEFOSINE], the IC50 (Leishmania donovani [30]) was 471 nM.
`C[C@H](NCc1ccccc1)c1cc2c(cc1O)OC(C)(C)C=C2` showed an Activity (Plasmodium falciparum [3]) of 116%, an inhibition (Plasmodium falciparum [4]) of 1% and an inhibition (Plasmodium falciparum [5]) of 5%. For the same molecule, the IC50 (Plasmodium falciparum [29]) was 10 nM and the Activity (Plasmodium falciparum [11]) was 96%.
Work on `CC(NCCCc1ccccc1)c1cc2c(cc1O)OC(C)(C)C=C2` (racemic) yielded an Activity (Plasmodium falciparum [3]) of 116%, an inhibition (Plasmodium falciparum [4]) of 4% and an inhibition (Plasmodium falciparum [5]) of 3%. For the same molecule, the IC50 (Plasmodium falciparum [29]) was 886 nM, the Activity (Plasmodium falciparum [11]) was 98% and the “Ratio IC50” value (Plasmodium falciparum [31]) was 13.
With `CC(NCc1ccccc1)c1cc2c(cc1O)OC(C)(C)C=C2` (racemic) the IC50 (Plasmodium falciparum [29]) was 26 nM and the “Ratio IC50” value (Plasmodium falciparum [31]) was 26.
`CC1(C)CCc2cc(CCCNCc3ccccc3)c(O)cc2O1` showed an IC50 (Leishmania donovani [1]) of 15000 nM, a selectivity ratio [6] of 24 and an IC50 (Plasmodium falciparum [12]) of 980 nM. It also gave a selectivity ratio [14] of 2, an IC50 at 70 h [16] of 24000 nM and a selectivity ratio [18] of 5. The selectivity ratio [21] was 2, the IC50 [23] was 4600 nM and the IC50 (Trypanosoma cruzi) was 15000 nM. The Ki [25] was 4.8 nM.
`COc1ccc(C(=O)/C=C(\O)C(F)(F)C(F)(F)F)c(O)c1` showed an IC50 [32] of 170 nM and an IC50 (Plasmodium falciparum [33]) of 140 nM.
With `COCOc1cc2c(cc1CCCNCc1ccccc1)CCC(C)(C)O2` the Ki [25] was 2.4 nM.
`CC1(C)CCc2c(ccc(CNCCCc3ccccc3)c2O)O1` gave an IC50 (Leishmania donovani [1]) of 52000 nM, a selectivity ratio [6] of 180 and an IC50 (Plasmodium falciparum [12]) of 150 nM. For the same molecule, the selectivity ratio [14] was 0.9, the IC50 at 70 h [16] was 27000 nM and the selectivity ratio [18] was 8. The selectivity ratio [21] was 0.5, the IC50 [23] was 3400 nM and the IC50 (Trypanosoma cruzi) was 31000 nM.
In the case of `CC1(C)CCc2cc(CNCCCCc3ccccc3)c3c(c2O1)CCC(C)(C)O3`, the IC50 (Leishmania donovani [1]) is reported as 4900 nM, the selectivity ratio [6] is reported as 15 and the IC50 (Plasmodium falciparum [12]) is reported as 210 nM. It also gave a selectivity ratio [14] of 0.6, an IC50 at 70 h [16] of 3200 nM and a selectivity ratio [18] of 6. The selectivity ratio [21] was 0.7, the IC50 [23] was 540 nM and the IC50 (Trypanosoma cruzi) was 5400 nM.
For `CC1(C)CCc2c(ccc(CNCCCCc3ccccc3)c2O)O1`, the IC50 (Leishmania donovani [1]) was 42000 nM, the selectivity ratio [6] was 83 and the IC50 (Plasmodium falciparum [12]) was 180 nM. The selectivity ratio [14] was 0.8, the IC50 at 70 h [16] was 15000 nM and the selectivity ratio [18] was 4. It also gave a selectivity ratio [21] of 0.4, an IC50 [23] of 3400 nM and an IC50 (Trypanosoma cruzi) of 18000 nM.
